Data taken from US20090203731A1, “TREATMENT OF DEPRESSION AND OTHER AFFECTIVE DISORDERS” (H. Lundbeck A/S, priority 2003, published 2009).

Tests used:
Assay type in all cases: in vivo
[1] = system: rat chronic mild stress (CMS) model of depression; assay: rat chronic mild stress (CMS) model of depression, sucrose consumption; details: male Wistar rats
Excerpt: The rat chronic mild stress (CMS) model of depression has a high degree of predictive validity for antidepressant activity (Willner, 1997, Psychopharmacol. 134, 319-329). Furthermore, the procedure is an appropriate model to study onset of antidepressant action in animals (C. Sánchez et al., 2003, Behavioural Pharmacology 14, 465-470). The principle of the model is based on the relation between stress and affective disorders. Rats exposed to chronic stress will show a reduced sensitivity to rewards (e.g. a palatable sucrose solution).
Male Wistar rats (Gorzkowska, Warsaw) were brought into the laboratory two months before the start of the experiment. The animals were singly housed with food and water freely available, and maintained on a 12-h light/dark cycle at a temperature of 22±2° C., except as described below.
The animals were first trained to consume a 1% sucrose solution; training consisted of eight 1 h baseline tests in which sucrose was presented, in the home cage, following 14 h food and water deprivation; intake was measured by weighing pre-weighed bottles containing the sucrose solution, at the end of the test. Subsequently, sucrose consumption was monitored, under similar conditions, throughout the whole experiment. […] Body weights were assessed a baseline and by the end of drug treatment.

[2] = system: 5-HTP-induced behaviour in mice; assay: mouse 5-HTP potentiation test (potentiation of 5-HTP-induced behaviour); details: gaboxadol 2.5 mg/kg with escitalopram 0.5 to 0.025 mg/kg, s.c., 30 min before i.v. 5-HTP 100 mg/kg, male NMRI/BOM mice
Excerpt: (§1) In order to modulate the activity of systems responsible for antidepressant activity, we have characterized the interaction between gaboxadol and escitalopram (an SSRI) in a behavioral model of serotonin reuptake inhibition, i.e. the mouse 5-HTP potentiation test, and a model that is predictive of antidepressant activity, i.e. the mouse forced swim test (cf. C. Sánchez et al., 2003, Psychopharmacology 167, 353-362).
(§2) Male NMRI/BOM mice (18-25 g; Bomholtgaard, Denmark) were used. The mice were housed in plastic cages (35×30×12 cm), 10 animals in each, and habituated to the animal facilities for at least a week before test. The room temperature (21±2° C.), relative humidity (55±5%), and air exchange (16 times per h) were automatically controlled. The animals had free access to commercial food pellets and tap water before test.
The test procedure for studies in mice is described in detail by Hyttel et al., 1992, J. Neural. Transm. Gen. Sect. 88, 157-60. Briefly, 30 min after subcutaneous (s.c.) administration of test compound, mice were given intravenous (i.v.) 5-HTP (100 mg/kg). Thereafter the animals were evaluated in their home cage during a 15-min observation period with respect to stereotypy (lateral head movements), tremor, and hind limb abduction. One point was given for each symptom being present. A total of 8-16 mice were used per dose. Inhibition of forced swimming-induced immobility.

[3] = system: forced swimming-induced immobility in mice; assay: mouse forced swim test (inhibition of forced swimming-induced immobility); details: male NMRI/BOM mice
Excerpt: as §1, §2
A mouse that is forced to swim in a spatially constrained container will exert a characteristic immobile posture. Pretreatment with an antidepressant will counteract this effect. The test was conducted as described in detail by Sánchez and Meier (Psychopharmacol. 129, 197-205, 1997). Briefly, a fully automated test system with 6 swim units (2000 ml glass jars filled with 1200 ml soiled water (23-25° C.) in which a mouse had been placed previously) was used. […] The accumulated duration of immobility was measured during the last 3 min. […]

Oc1noc2c1CCNC2 [gaboxadol, Gaboxadol]
effect in the rat chronic mild stress model at 2.5 mg/kg per day ([1]; 2.5 mg/kg per day, intraperitoneal): clear and significant effect | anti-depressant-like effect in the rat chronic mild stress model ([1]; twice daily intraperitoneal injections for five weeks): significant anti-depressant-like effect | potentiation of the acute effects of escitalopram in the 5-HTP potentiation test [2]: strongly potentiated the acute effects of escitalopram | activity by itself in the forced swim test ([3]; gaboxadol 2.5 mg/kg alone, 30 min before test): not active by itself | potentiation of the antidepressant-like effect of escitalopram in the forced swim test ([3]; gaboxadol 2.5 mg/kg with escitalopram 2.5 and 5 mg/kg): potentiated the antidepressant-like effect of escitalopram (2.5 and 5 mg/kg) significantly
